According to ChEMBL document CHEMBL4507268 (2021):

Legend:
Settings in all cases: Compound concentration 1000.0 nM
[1] = target: Cyclin-dependent kinase 18 (Homo sapiens) (UniProt Q07002)
[2] = test system: Mast/stem cell growth factor receptor Kit (Homo sapiens), P10721 [D816V]
[3] = target: Protein-tyrosine kinase 2-beta (Homo sapiens) (UniProt Q14289)
[4] = target: Ribosomal protein S6 kinase alpha-5 (Homo sapiens) (UniProt O75582)
[5] = target: Ephrin type-B receptor 6 (Homo sapiens) (UniProt O15197)
[6] = target: Tyrosine-protein kinase JAK1 (Homo sapiens) (UniProt P23458)
[7] = target: T1, Cyclin-dependent kinase-like 2 (Homo sapiens) (UniProt Q92772)
T1 sequence (whole entry): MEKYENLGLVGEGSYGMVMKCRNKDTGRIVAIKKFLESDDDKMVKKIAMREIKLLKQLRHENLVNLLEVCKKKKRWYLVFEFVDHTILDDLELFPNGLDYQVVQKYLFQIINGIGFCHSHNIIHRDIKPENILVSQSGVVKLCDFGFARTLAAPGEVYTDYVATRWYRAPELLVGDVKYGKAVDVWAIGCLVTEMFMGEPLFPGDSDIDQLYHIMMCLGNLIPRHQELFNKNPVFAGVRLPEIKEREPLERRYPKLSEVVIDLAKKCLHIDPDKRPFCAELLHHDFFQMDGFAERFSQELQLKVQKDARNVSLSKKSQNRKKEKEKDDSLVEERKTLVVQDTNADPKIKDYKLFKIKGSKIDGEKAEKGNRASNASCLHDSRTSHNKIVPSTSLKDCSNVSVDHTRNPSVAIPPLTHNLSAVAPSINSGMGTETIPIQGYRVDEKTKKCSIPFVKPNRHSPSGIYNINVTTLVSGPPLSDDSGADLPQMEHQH

[8] = target: Serine/threonine-protein kinase N1 (Homo sapiens) (UniProt Q16512)
[9] = target: Proto-oncogene tyrosine-protein kinase ROS (Homo sapiens) (UniProt P08922)
[10] = target: Eukaryotic translation initiation factor 2-alpha kinase 1 (Homo sapiens) (UniProt Q9BQI3)
[11] = test system: Hepatocyte growth factor receptor (Homo sapiens), P08581 [Y1235D]
[12] = target: Serine/threonine-protein kinase PLK2 (Homo sapiens) (UniProt Q9NYY3)
[13] = target: 1-phosphatidylinositol 3-phosphate 5-kinase (Homo sapiens) (UniProt Q9Y2I7)
[14] = target: T2, Phosphorylase b kinase regulatory subunit alpha, liver isoform (Homo sapiens) (UniProt P46019)
T2 sequence (whole entry): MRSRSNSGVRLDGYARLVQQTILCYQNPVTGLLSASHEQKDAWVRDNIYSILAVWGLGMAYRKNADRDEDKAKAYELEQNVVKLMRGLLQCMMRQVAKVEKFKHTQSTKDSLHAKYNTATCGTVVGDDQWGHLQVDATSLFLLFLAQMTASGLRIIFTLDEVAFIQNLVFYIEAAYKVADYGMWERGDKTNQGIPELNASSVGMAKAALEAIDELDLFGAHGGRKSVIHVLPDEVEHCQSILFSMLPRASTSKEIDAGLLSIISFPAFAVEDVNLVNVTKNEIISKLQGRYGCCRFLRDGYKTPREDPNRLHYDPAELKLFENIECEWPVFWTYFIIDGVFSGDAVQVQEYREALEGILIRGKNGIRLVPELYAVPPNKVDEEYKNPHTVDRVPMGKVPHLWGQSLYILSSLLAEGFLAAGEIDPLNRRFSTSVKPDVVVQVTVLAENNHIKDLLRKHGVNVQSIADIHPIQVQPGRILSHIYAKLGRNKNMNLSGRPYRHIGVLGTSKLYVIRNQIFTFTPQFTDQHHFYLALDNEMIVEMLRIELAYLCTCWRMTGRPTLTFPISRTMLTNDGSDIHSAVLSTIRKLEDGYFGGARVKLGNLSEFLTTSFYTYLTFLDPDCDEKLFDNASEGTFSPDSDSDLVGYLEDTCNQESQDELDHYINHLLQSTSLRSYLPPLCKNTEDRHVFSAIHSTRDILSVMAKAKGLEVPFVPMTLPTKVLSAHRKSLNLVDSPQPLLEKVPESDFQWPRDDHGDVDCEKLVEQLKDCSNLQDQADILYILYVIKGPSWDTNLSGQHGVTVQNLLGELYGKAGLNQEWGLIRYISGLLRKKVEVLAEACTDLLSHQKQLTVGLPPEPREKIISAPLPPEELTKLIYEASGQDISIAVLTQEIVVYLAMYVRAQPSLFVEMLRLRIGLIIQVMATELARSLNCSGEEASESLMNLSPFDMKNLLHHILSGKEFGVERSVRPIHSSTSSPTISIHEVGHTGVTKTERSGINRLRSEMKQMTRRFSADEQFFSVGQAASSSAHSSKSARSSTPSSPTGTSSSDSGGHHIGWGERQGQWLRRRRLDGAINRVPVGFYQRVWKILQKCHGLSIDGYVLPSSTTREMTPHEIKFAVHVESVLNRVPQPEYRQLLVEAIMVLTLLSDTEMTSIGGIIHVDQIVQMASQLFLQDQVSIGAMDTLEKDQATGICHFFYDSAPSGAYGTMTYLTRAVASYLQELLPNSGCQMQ

[15] = target: Ephrin type-A receptor 5 (Homo sapiens) (UniProt P54756)
[16] = target: Receptor-type tyrosine-protein kinase FLT3 (Homo sapiens) (UniProt P36888)

Measured: residual activity

Proto-oncogene tyrosine-protein kinase ROS (Homo sapiens), sequence (P08922 whole entry): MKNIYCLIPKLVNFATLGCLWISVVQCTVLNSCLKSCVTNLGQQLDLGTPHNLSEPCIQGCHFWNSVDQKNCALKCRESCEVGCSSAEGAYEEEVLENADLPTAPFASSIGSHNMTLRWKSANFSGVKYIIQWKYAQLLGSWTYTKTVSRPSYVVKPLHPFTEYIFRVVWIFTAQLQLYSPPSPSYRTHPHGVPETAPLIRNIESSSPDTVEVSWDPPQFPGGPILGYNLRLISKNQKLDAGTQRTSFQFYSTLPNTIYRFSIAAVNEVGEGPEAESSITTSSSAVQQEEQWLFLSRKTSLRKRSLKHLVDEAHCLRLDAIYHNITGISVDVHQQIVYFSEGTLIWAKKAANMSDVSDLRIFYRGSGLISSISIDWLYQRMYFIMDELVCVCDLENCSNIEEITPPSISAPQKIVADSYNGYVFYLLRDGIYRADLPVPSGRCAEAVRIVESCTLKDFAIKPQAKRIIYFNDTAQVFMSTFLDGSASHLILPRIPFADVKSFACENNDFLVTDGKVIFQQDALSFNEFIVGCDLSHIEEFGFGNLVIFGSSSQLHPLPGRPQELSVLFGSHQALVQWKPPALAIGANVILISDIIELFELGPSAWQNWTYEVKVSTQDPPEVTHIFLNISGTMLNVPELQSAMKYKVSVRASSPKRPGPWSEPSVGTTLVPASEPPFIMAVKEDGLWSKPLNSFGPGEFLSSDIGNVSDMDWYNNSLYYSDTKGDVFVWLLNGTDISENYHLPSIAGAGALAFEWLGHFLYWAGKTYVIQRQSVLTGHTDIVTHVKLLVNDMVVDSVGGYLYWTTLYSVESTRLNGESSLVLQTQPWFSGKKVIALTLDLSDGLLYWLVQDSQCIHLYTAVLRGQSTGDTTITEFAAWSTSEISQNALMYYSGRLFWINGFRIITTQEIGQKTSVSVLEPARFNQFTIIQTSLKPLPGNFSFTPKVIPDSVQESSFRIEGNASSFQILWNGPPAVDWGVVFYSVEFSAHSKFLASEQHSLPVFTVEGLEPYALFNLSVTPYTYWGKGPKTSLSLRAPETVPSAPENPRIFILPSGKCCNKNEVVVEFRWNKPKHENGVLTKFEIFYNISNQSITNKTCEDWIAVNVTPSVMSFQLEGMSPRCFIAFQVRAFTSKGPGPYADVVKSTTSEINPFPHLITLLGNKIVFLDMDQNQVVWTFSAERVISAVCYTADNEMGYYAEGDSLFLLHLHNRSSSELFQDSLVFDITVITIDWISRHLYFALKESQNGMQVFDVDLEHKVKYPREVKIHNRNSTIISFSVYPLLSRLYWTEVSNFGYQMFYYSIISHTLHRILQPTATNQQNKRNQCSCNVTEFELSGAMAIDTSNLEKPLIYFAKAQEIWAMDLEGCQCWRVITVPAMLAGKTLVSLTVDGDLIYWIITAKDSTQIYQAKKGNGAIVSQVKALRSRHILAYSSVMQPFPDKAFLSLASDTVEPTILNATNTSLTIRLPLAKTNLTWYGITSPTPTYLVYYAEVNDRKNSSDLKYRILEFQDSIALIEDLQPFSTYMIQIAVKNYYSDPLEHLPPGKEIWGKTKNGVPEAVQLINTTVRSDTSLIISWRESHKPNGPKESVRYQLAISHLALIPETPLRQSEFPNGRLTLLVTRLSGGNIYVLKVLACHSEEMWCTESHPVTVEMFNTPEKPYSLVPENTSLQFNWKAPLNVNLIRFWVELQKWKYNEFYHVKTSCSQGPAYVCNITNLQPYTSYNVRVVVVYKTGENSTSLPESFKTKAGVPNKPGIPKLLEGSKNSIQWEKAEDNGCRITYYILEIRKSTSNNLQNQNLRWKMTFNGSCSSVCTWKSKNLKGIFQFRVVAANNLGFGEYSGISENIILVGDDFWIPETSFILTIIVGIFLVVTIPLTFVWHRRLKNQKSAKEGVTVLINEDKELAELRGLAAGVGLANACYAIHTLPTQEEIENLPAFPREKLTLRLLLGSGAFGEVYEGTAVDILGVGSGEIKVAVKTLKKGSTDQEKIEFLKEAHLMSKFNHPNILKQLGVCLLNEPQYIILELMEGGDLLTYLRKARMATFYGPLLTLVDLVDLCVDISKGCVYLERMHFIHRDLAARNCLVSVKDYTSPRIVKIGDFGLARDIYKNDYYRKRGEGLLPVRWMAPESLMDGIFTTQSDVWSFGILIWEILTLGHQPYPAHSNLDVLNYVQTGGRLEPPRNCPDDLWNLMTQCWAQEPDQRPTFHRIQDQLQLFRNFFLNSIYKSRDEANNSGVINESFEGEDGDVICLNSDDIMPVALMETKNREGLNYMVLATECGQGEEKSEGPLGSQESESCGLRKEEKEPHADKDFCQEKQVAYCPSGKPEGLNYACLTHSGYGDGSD
Serine/threonine-protein kinase PLK2 (Homo sapiens), sequence (Q9NYY3 whole entry, looked up): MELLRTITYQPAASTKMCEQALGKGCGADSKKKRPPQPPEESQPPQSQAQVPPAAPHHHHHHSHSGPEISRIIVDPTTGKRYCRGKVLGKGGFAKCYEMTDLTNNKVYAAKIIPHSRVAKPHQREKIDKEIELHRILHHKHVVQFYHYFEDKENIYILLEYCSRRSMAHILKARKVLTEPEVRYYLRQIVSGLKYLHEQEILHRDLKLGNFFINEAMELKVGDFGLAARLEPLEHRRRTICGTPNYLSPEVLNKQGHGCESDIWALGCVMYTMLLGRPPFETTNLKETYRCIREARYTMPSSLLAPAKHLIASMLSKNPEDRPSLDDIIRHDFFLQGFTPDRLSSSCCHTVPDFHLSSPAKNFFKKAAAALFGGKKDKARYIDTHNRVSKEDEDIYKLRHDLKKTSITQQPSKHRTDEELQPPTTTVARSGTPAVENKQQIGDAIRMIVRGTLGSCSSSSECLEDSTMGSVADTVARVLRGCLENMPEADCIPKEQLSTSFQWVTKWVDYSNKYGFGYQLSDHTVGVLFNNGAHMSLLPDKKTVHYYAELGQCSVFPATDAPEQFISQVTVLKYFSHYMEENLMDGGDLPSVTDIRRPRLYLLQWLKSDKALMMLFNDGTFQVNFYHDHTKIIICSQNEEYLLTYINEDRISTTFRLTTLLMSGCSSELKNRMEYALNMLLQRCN
Ephrin type-B receptor 6 (Homo sapiens), sequence (O15197 whole entry): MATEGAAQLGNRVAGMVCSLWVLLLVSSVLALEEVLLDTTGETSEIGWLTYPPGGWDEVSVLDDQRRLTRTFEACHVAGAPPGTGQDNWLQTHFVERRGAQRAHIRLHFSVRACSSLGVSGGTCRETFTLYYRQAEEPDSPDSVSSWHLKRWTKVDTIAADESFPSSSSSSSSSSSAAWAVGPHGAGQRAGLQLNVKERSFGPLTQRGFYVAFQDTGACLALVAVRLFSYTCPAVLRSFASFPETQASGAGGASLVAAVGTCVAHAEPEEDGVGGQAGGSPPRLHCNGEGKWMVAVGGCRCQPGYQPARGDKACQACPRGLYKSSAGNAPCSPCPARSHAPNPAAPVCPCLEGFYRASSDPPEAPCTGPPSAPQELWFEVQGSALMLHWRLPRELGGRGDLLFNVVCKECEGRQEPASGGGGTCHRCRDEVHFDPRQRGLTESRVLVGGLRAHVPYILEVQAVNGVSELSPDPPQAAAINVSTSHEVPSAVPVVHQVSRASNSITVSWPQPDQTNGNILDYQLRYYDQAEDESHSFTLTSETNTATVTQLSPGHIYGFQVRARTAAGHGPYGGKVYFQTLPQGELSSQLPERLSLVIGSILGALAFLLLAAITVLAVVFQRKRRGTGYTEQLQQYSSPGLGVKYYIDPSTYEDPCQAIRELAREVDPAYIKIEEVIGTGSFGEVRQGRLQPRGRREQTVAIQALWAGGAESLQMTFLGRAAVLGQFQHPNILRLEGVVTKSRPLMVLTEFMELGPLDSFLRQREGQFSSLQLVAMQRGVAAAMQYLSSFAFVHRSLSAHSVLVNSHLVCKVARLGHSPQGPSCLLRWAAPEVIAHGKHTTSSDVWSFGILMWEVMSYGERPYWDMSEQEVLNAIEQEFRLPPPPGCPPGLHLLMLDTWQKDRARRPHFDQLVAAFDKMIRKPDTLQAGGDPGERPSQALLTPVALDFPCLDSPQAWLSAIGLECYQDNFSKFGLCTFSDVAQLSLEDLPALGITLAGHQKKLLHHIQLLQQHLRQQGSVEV
Cyclin-dependent kinase 18 (Homo sapiens), sequence (Q07002 whole entry): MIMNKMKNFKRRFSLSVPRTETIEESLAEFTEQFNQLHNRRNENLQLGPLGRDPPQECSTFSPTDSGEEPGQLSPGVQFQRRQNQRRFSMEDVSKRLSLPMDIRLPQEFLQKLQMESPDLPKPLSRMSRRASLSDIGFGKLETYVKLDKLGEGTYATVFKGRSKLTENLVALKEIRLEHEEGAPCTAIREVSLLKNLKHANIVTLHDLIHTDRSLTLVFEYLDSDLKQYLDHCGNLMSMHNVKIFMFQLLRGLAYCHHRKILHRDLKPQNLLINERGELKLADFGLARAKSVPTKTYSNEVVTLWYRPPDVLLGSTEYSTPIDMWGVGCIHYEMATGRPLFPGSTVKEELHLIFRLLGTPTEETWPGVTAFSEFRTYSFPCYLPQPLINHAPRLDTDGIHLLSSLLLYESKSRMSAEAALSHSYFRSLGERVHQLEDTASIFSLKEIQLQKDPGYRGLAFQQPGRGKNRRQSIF

Cc1nc(C2CCN(C(=O)c3ccc(OC(F)(F)F)cc3N)CC2)c2ncc(N3CCN(C)CC3)cc2n1 [BAY-693]
inactive: [1] 100% | [2] 100% | [3] 100% | [4] 90% | [5] 100% | [6] 90% | [7] 100% | [8] 100% | [9] 92% | [10] 85% | [11] 98% | [12] 74% | [13] 100% | [14] 100% | [15] 99% | [16] 83%

CN1CCN(c2cnc3c(C4CCN(C(=O)c5ccc(OC(F)(F)F)cc5N)CC4)ncnc3c2)CC1 [BAY-885]
inactive: [1] 100% | [2] 100% | [3] 100% | [4] 96% | [6] 90% | [7] 100% | [8] 100% | [9] 100% | [10] 100% | [11] 73% | [12] 93% | [13] 98% | [14] 100% | [15] 91% | [16] 100%
active: [5] 18%
